# Measurements: ChEMBL document CHEMBL4373715, “Discovery and Biological Evaluations of Halogenated 2,4-Diphenyl Indeno[1,2-b]pyridinol Derivatives as Potent Topoisomerase IIα-Targeted Chemotherapeutic Agents for Breast Cancer” (J Med Chem, 2019)
# Active and inactive are the calls of the source. No cut-off for these calls is given here.
# Columns and labels:
# [1] = Stability in mouse plasma assessed as parent compound remaining at 1 mM measured after 2 hrs by LC-MS/MS analysis; assay type: ADME, cell-free; conditions: 1000 µM
# [2] = Toxicity in female ICR mouse assessed as physical abnormalities at 50 to 100 mg/kg, iv administered as single dose measured up to 7 days; assay type: organism-based; conditions: in vivo, 168 h
# [3] = Stability in human plasma assessed as parent compound remaining at 1 mM measured immediately by LC-MS/MS analysis; assay type: ADME, cell-free; conditions: read-out: Stability
# [4] = Toxicity in female ICR mouse assessed as mortality at 100 mg/kg, iv administered as single dose measured daily for 7 days (reference value: 0%); assay type: organism-based; conditions: in vivo
# [5] = Stability in mouse plasma assessed as parent compound remaining at 1 mM measured after 4 hrs by LC-MS/MS analysis; assay type: ADME, cell-free; conditions: 1000 µM
# [6] = Toxicity in male ICR mouse assessed as physical abnormalities at 50 to 100 mg/kg, iv administered as single dose measured up to 7 days; assay type: organism-based; conditions: in vivo, 168 h
# [7] = Protein binding in rat plasma assessed as unbound fraction at 1 mM measured immediately by LC-MS/MS analysis; assay type: ADME, cell-free
# HeLa = test: Antiproliferative activity against human HeLa cells measured after 72 hrs by EZ-Cytox assay; assay type: functional, cell-based
# [8] = Stability in human plasma assessed as parent compound remaining at 1 mM measured after 0.25 hrs by LC-MS/MS analysis; assay type: ADME, cell-free; conditions: read-out: Stability
# [9] = Half life in human liver microsomes at 1 mM in presence of NADPH by LC-MS/MS analysis; assay type: ADME, Microsome
# [10] = Protein binding in mouse plasma assessed as unbound fraction at 1 mM measured immediately by LC-MS/MS analysis; assay type: ADME, cell-free
# [11] = Protein binding in human plasma assessed as unbound fraction at 1 mM measured immediately by LC-MS/MS analysis; assay type: ADME, cell-free
# [12] = target: DNA topoisomerase 2-alpha (Homo sapiens) (UniProt P11388); test: Poison activity at topoisomerase-2 alpha in human T47D cells assessed as stabilization of enzyme-DNA cleavage complex by measuring reduction in topo-2alpha level at 50 uM measured after 2 hrs in presence of etoposide by Western blot analysis; assay type: cell-based
# DNA topoisomerase 2-alpha (Homo sapiens), sequence (P11388 whole entry): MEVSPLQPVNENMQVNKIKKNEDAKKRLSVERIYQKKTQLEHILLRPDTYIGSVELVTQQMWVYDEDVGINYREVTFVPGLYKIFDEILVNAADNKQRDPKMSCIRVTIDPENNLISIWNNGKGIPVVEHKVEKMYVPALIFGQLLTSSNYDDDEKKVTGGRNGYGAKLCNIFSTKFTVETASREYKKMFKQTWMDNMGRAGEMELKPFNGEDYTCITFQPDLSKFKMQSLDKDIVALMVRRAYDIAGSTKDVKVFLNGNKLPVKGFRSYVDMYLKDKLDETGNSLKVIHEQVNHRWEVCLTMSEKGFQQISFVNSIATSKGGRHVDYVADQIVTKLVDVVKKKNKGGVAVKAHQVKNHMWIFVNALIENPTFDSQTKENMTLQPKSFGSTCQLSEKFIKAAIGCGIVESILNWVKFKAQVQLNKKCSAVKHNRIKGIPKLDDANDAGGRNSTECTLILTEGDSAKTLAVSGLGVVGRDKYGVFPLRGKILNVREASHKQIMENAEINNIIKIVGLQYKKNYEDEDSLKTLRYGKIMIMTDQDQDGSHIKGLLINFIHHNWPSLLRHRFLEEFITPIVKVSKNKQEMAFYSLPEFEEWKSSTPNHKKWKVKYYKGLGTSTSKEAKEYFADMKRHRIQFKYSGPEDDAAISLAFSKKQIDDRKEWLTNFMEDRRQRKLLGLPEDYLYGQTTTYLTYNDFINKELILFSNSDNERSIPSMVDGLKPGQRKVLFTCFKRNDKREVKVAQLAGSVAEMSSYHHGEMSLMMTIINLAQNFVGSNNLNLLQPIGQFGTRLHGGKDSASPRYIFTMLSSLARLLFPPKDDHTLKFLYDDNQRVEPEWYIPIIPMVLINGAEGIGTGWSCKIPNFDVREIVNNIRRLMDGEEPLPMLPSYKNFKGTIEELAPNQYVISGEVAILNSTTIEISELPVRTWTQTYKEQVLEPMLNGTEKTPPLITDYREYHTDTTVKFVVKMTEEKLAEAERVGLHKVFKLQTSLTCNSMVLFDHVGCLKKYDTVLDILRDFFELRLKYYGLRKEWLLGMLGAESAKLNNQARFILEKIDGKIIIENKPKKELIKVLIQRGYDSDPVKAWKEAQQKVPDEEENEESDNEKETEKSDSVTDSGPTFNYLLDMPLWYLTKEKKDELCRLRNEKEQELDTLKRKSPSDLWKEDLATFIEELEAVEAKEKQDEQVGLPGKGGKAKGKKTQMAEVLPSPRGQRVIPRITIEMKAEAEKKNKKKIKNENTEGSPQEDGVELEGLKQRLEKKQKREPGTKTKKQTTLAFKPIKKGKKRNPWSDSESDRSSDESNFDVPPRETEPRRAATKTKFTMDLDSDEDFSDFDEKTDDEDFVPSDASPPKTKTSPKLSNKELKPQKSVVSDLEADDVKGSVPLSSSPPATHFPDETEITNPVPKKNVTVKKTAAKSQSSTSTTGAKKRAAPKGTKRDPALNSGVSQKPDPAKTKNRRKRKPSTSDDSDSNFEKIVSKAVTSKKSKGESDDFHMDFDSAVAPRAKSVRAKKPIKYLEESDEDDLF
# [13] = Toxicity in male ICR mouse assessed as change in body weight at 50 to 100 mg/kg, iv administered as single dose measured daily for 7 days; assay type: organism-based; conditions: in vivo, 168 h
# MDA-MB-231 [14] = test: Antitumor activity against human MDA-MB-231 cells expressing luciferase xenografted in mouse assessed as reduction in tumor weight at 12 mg/kg, iv administered once daily for 10 days measured 18 days post-last dose by bioluminescent imaging analysis; assay type: functional, organism-based
# [15] = Stability in rat plasma assessed as parent compound remaining at 1 mM measured after 1 hr by LC-MS/MS analysis; assay type: ADME, cell-free; conditions: read-out: Stability
# MDA-MB-231 [16] = test: Antitumor activity against human MDA-MB-231 cells expressing luciferase xenografted in mouse assessed as tumor growth inhibition at 12 mg/kg, iv administered once daily for 10 days measured on day 4 and 11 by bioluminescent imaging analysis; assay type: functional, organism-based
# [17] = Toxicity in female ICR mouse assessed as change in body weight at 50 to 100 mg/kg, iv administered as single dose measured daily for 7 days; assay type: organism-based; conditions: in vivo, 168 h
# [18] = Toxicity in male ICR mouse assessed as mortality at 50 mg/kg, iv administered as single dose measured daily for 7 days (reference value: 0%); assay type: organism-based; conditions: in vivo
# [19] = Stability in rat plasma assessed as parent compound remaining at 1 mM measured after 4 hrs by LC-MS/MS analysis; assay type: ADME, cell-free; conditions: 1000 µM
# [20] = Half life in ICR mouse liver microsomes at 1 mM in presence of NADPH by LC-MS/MS analysis; assay type: ADME, Microsome
# [21] = Protein binding in mouse plasma assessed as unbound fraction at 1 mM measured after 1 hr by LC-MS/MS analysis; assay type: ADME, cell-free
# [22] = Stability in mouse plasma assessed as parent compound remaining at 1 mM measured after 0.25 hrs by LC-MS/MS analysis; assay type: ADME, cell-free; conditions: read-out: Stability
# [23] = Stability in human plasma assessed as parent compound remaining at 1 mM measured after 0.5 hrs by LC-MS/MS analysis; assay type: ADME, cell-free; conditions: read-out: Stability
# [24] = Stability in rat plasma assessed as parent compound remaining at 1 mM measured after 0.25 hrs by LC-MS/MS analysis; assay type: ADME, cell-free; conditions: read-out: Stability
# HCC70 = test: Antiproliferative activity against human HCC70 cells measured after 72 hrs by Ez-cytox assay; assay type: functional, cell-based; conditions: HCC70, 72 h, read-out: IC50
# HCT-15 = test: Antiproliferative activity against human HCT15 cells measured after 72 hrs by EZ-Cytox assay; assay type: functional, cell-based; conditions: HCT-15, 72 h
# [25] = target: DNA topoisomerase 2-alpha (Homo sapiens) (UniProt P11388); test: Poison activity at recombinant human topoisomerase-2 alpha assessed as stabilization of enzyme-DNA cleavage complex by measuring linear DNA formation at 500 uM using supercoiled pBR322 DNA as substrate after 60 mins by agarose gel electrophoresis method
# [26] = Half life in Sprague-Dawley rat liver microsomes at 1 mM in presence of NADPH by LC-MS/MS analysis; assay type: ADME, Microsome
# [27] = Stability in mouse plasma assessed as parent compound remaining at 1 mM measured after 1 hr by LC-MS/MS analysis; assay type: ADME, cell-free; conditions: read-out: Stability
# MDA-MB-231 [28] = test: Antiproliferative activity against human MDA-MB-231 cells measured after 72 hrs by Ez-cytox assay; assay type: functional, cell-based; conditions: MDA-MB-231, 72 h
# [29] = target: DNA topoisomerase 2-alpha (Homo sapiens) (UniProt P11388); test: Poison activity at topoisomerase-2 alpha in human T47D cells assessed as stabilization of enzyme-DNA cleavage complex by measuring reduction in topo-2alpha level at 50 uM measured after 2 hrs by Western blot analysis; assay type: cell-based
# T47D = test: Induction of apoptosis in human T47D cells assessed as decrease in bcl-2 expression at 10 to 30 uM measured after 24 hrs by Western blot analysis; assay type: functional, cell-based
# [30] = Protein binding in rat plasma assessed as unbound fraction at 1 mM measured after 1 hr by LC-MS/MS analysis; assay type: ADME, cell-free
# [31] = Protein binding in human plasma assessed as unbound fraction at 1 mM measured after 1 hr by LC-MS/MS analysis; assay type: ADME, cell-free
compound,measurement,setting,value
Oc1ccc(-c2cc(-c3ccccc3Cl)nc3c2Cc2c(O)cccc2-3)cc1,Stability,[1],116.3%
same,Activity,[2],Non-Toxic
same,remaining at 0 h,[3],100%
same,mortality at 168 h,[4],0%
same,Stability,[5],130.8%
same,Activity,[6],Non-Toxic
same,fraction unbound at 0 h,[7],1
same,IC50,HeLa,2460 nM
same,remaining at 0.25 h,[8],98.7%
same,half-life,[9],6.53 h
same,fraction unbound at 0 h,[10],1
same,fraction unbound at 0 h,[11],1
same,Activity,[12],Active
same,Activity,[13],Non-Toxic
same,Activity,MDA-MB-231 [14],Active
same,remaining at 1 h,[15],111%
same,TGI,MDA-MB-231 [16],Active
same,Activity,[17],Non-Toxic
same,mortality at 168 h,[18],0%
same,Stability,[19],130.4%
same,half-life,[20],2.61 h
same,fraction unbound at 1 h,[21],0.999
same,remaining at 0.25 h,[22],109%
same,remaining at 0.5 h,[23],99.3%
same,remaining at 0.25 h,[24],102%
same,IC50,HCC70,2080 nM
same,IC50,HCT-15,14 nM
same,Activity,[25],Active
same,half-life,[26],26 h
same,remaining at 1 h,[27],110%
same,IC50,MDA-MB-231 [28],2700 nM
same,Activity,[29],Active
same,Activity,T47D,Active
same,fraction unbound at 1 h,[30],1
same,fraction unbound at 1 h,[31],0.959
